# Values of other authors, collected in patent publication US20230310464A1, “USE OF C[…] THE TREATMENT OF SEIZURES ASSOCIATED WITH RARE […] SYNDROMES RELATED TO BRAIN INJURY” (GW Research Limited, priority 2020, published 2023).
# How the values were obtained:
# [1] = tested on: new-born piglets with HIE; settings: Alvarez et al. (2008); cited from earlier work
# [2] = tested on: HI injury in an animal model of NHIE; settings: CBD combined with therapeutic hypothermia, GB 2504263; cited from earlier work
# [3] = tested on: patients with Dravet and Lennox-Gastaut syndrome; settings: purified pharmaceutical formulation of CBD, three trials; cited from earlier work
# [4] = tested on: seizures in patients with Lennox Gastaut syndrome; settings: 100% CBD, half also with HIE, Morales et al.; cited from earlier work
compound,measurement,setting,value
"C=C(C)[C@@H]1CCC(C)=C[C@H]1c1c(O)cc(CCCCC)cc1O [CBD, cannabidiol]",effect on seizures in piglets (in words),[1],A reduction in seizures was reported
same,proportion of CBD-treated piglets that still maintained significant seizures,[1],half
same,neuroprotection following HI injury (in words),[2],synergistic in neuroprotection
same,efficacy in randomized control trials (in words),[3],showed efficacy
same,effect on seizures in LGS patients (in words),[4],a reduction in seizures was obtained
